{"source": "patent US6586413B2", "about": "“Methods and compositions for reducing ischemic injury of the heart by administering adenosine receptor agonists and antagonists” (The United States of America as represented by the …, priority 1999, dated 2003)", "key": {"[1]": {"system": "isolated cardiac myocytes", "assay": "Apoptotic cell death by DNA laddering on 1.5% agarose gel", "type": "cell-based", "conditions": "for apoptotic cell death (DNA laddering): 90 min ischemia and 30 min reoxygenation, 10 nM Cl-IB-MECA, 1 μM MRS1191; for apoptosis (DNA laddering): prolonged moderate ischemia, 17 hours with 2-3% O2", "description": "Such smearing is indicative of a culmination of the apoptotic cell death pathway. Isolated cardiac myocytes were exposed to 90-min ischemia and 30-min reoxygenation (lanes 4 and 5). […] Lanes 1 and 2 represent myocytes not exposed to ischemia or any agent. Data were representative of three experiments.\nIsolated cardiac myocytes were exposed to prolonged moderate simulated ischemia (17 hours with 2-3% O2). Lane 3 represents myocytes not exposed to ischemia or any agent. Lane 5 represents myocytes exposed to 17 hours of ischemia. […] Data were representative of three experiments.\nLane 3 represents myocytes not exposed to any agent. Lane 5 represents cardiac myocytes exposed (for three hours) to an agent (a P2X receptor agonist, 2-methylthioATP) known to increase intracellular calcium concentration. Prolonged exposure to 2-methylthioATP or UTP caused increased apoptosis (Lane 7). […] Data were representative of two experiments.\nThe effects of agents which target the adenosine receptor on apoptosis were initially examined in isolated cardiac myocytes exposed to ischemia (for 90 minutes and 30 minutes of reoxygenation) or agents which increase intracellular calcium levels. Increasing the level of intracellular calcium concentration induces non-ischemia-related apoptosis in vitro. Apoptotic cell death of cardiac myocytes was assessed by determining the extent of smearing or “DNA laddering” on 1.5% agarose gels."}, "[2]": {"target": "T1, human adenosine A3 receptor (Homo sapiens, UniProt P0DMS8)", "T1 construct": "full length cDNA encoding human adenosine A3 receptor subcloned in pcDNA3; expressed in transfected cells; host or cells: chick embryo atrial myocytes, transient calcium phosphate transfection with pcDNA3/hA3R", "T1 sequence (P0DMS8 1-318)": "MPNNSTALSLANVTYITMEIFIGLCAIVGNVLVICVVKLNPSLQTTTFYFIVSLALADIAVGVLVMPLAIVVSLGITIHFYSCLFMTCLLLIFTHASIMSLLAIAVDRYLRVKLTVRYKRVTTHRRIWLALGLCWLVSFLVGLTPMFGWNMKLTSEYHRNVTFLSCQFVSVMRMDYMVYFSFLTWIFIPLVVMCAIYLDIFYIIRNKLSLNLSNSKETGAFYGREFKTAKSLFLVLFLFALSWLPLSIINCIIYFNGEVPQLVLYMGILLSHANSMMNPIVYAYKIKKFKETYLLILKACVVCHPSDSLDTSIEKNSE", "assay": "Preconditioning in chick atrial myocytes transfected with the human A3 receptor", "type": "cell-based", "conditions": "hA3R-transfected vs vector-transfected atrial myocytes", "description": "Transfection of chick atrial myocytes with the human A3 receptor—Atrial cells were cultured from chick embryos 14 days in ovo and transiently transfected with pcDNA3 (empty vector) or with pcDNA3/hA3R (full length cDNA encoding human adenosine A3 receptor subcloned in pcDNA3) using the calcium phosphate precipitation method. Forty-eight hours after transfection, the cells were exposed to the compounds of the invention and the percentage of myocytes killed during simulated ischemia was determined.\nThe transfected myocytes were then exposed to the compound for 5 minutes, which was followed by replacement with fresh media and myocytes exposed to normal conditions (non-ischemic) for 10 minutes prior to being exposed to ninety minutes of ischemia. The decrease in the number of myocytes killed in A3 receptor cDNA-transfected myocytes as compared to vector-transfected myocytes was plotted as a function of the concentration of the compound. This decrease in myocytes killed represented an index of the protection mediated via the human adenosine A3 receptor."}, "[3]": {"system": "ventricular myocytes cultured from chick embryos", "assay": "Pharmacological preconditioning: 5 min exposure to agent, then 90 min simulated ischemia", "type": "cell-based", "conditions": "for preconditioning / cardioprotective effect: agent alone, 5 min exposure before 90 min ischemia", "description": "FIG. 14 is a graph showing that the partial A1 receptor agonist, 8-butylaminoCPA, mimics the cardioprotective effect of ischemic preconditioning. Ventricular myocytes were cultured from chick embryos 14 days in ovo. The ability of the partial A1 agonist, 8-butylaminoCPA (8-butylamino-N^6-cyclopentyladenosine), to induce preconditioning was determined. In brief, myocytes were exposed to 8-butylaminoCPA at the indicated concentrations for 5 min, incubated for 10 min with agonist-free medium, and then exposed to simulated ischemia for 90 min. The extent of myocyte injury was quantitated at the end of the 90 min period by determinating the percentage of cells killed and the amount of creatine kinase (CK) released (units per milligram of cell protein). Data are means±SE of values from five independent experiments.\n(§1) Determination of myocyte injury was made at the end of the ninety-minute hypoxia, at which time myocytes were taken out of the hypoxic incubator and re-exposed to room air (normal % O2). Aliquots of the media were then obtained for creatine kinase (CK) activity measurement, which is followed by quantitation of the number of viable cells. Measurement of basal level of cell injury was made after parallel incubation of control cells under normal % O2. The extent of hypoxia-induced injury to the ventricular cell was quantitatively determined by the percentages of cells killed and by the amount of CK released into the media according to a previously described method (16, 23). […] In brief, the media were replaced with a trypsin-EDTA buffer to detach the cells, which was then followed by sedimentation of the viable myocytes. Parallel changes in % cells killed and CK released (16, 23) further validated this assay for % cells killed. The amount of CK was measured as enzyme activity (unit/mg), and increases in CK activity above the control level were determined. The percentage of cells killed was calculated as the number of cells obtained from the control group (representing cells not subjected to any hypoxia or drug treatment) minus the number of cells from the treatment group divided by number of cells in control group multiplied by 100%.\nMedia were then replaced with fresh media, which was then followed by exposure to 90-minute simulated ischemia and the data graphed."}, "[4]": {"system": "cardiac ventricular myocytes cultured from chick embryos", "assay": "Hypoxia-induced myocyte injury, agent present during prolonged (90 min) hypoxia with glucose deprivation", "type": "cell-based", "conditions": "for creatine kinase released during prolonged simulated ischemia: increasing concentrations, presence and absence of DPCPX (FIGS. 3A-3D); for cardioprotective effect when present during prolonged hypoxia (CK released, % myocytes killed): agonist present during prolonged hypoxia/simulated ischemia", "description": "Ventricular cells were cultured from chick embryos 14 days in ovo as previously described (16, 23). Cells were cultivated in a humidified 5% CO2-95% air mixture at 37° C. […] The medium was changed to a HEPES-buffered medium containing (mM) 139 NaCl, 4.7 KCl, 0.5 MgCl2, 0.9 CaCl2, 5 HEPES (N-2-hydroxyethylpiperazine-N′-2-ethanesulfonic acid) and 2% fetal bovine serum, pH 7.4, 37° C. before exposing the myocytes to the various conditions at 37° C. Control myocytes were maintained in the HEPES-buffered media under room air. Ninety-minute exposure of the myocytes to hypoxia with glucose deprivation was used to induce cell injury. Hypoxia was produced by placing the cells in a hypoxic incubator (NuAire) where O2 was replaced by N2 as previously described (16,23). Effects of adenosine receptor agonists and antagonists on the extent of myocyte injury were determined by exposure of the prepared cells to these agents during the prolonged hypoxia.\nas §1"}, "[5]": {"system": "cardiac ventricular myocytes cultured from chick embryos", "assay": "Hypoxia-induced myocyte injury, agent present during prolonged (90 min) hypoxia with glucose deprivation", "type": "cell-based", "conditions": "agonist added upon reoxygenation after 90 minute hypoxia, kept one additional hour; hypoxia alone 26.5±1.0"}, "A3 receptor": {"target": "A3 receptor", "conditions": "cited from earlier work"}}, "note": "Where two headings read alike, the source gives them in different places."}
{"smiles": "CSc1nc(N)c2ncn([C@@H]3O[C@H](COP(=O)(O)OP(=O)(O)OP(=O)(O)O)[C@@H](O)[C@H]3O)c2n1", "note": "[2-methylthioATP]", "values": [{"measurement": "apoptotic cell death caused by prolonged exposure to the agent", "setting": "[1]; no ischemia, agents that increase intracellular calcium", "value": "caused an increase in apoptotic cell death"}]}
{"smiles": "CNC(=O)C1OC(n2cnc3c(NCc4cccc(C#CCNC(=O)Cc5ccc(NC(=O)Cc6ccc(Nc7ncnc8c7ncn8C7OC(CO)C(O)C7O)cc6)cc5)c4)ncnc32)C(O)C1O", "note": "(stereo not drawn) [MRS 1543]", "values": [{"measurement": "preconditioning / protection mediated via human adenosine A3 receptor", "setting": "[2]", "value": "can precondition and induces a cardioprotective effect via the human adenosine A3 receptor"}, {"measurement": "protective effect in combined presence of DPCPX and MRS1191", "setting": "[3]; DPCPX (1 μM) plus MRS1191 (1 μM)", "value": "completely abolished the protective effect of MRS1543"}, {"measurement": "preconditioning / cardioprotective effect", "setting": "[3]", "value": "can pharmacologically precondition the cardiac myocyte and induce a potent cardioprotective effect"}, {"measurement": "protective effect in presence of DPCPX", "setting": "[3]; excess DPCPX (1 μM)", "value": "only partially blocked by A1 antagonist DPCPX"}, {"measurement": "protective effect in presence of MRS1191", "setting": "[3]; excess MRS1191 (1 μM)", "value": "only partially attenuated by the A3 antagonist MRS1191"}]}
{"smiles": "CNC(=O)C1CC(O)C(n2cnc3c(NCc4cccc(I)c4)nc(Cl)nc32)O1", "note": "(stereo not drawn) [MRS 584]", "values": [{"measurement": "preconditioning / protection mediated via human adenosine A3 receptor", "setting": "[2]", "value": "can exert the cardioprotective effect of preconditioning via the human adenosine A3 receptor"}, {"measurement": "creatine kinase released during prolonged simulated ischemia", "setting": "[4]", "value": "cardioprotective effects"}]}
{"smiles": "OC[C@H]1O[C@@H](n2cnc3c(NC4CCCC4)nc(Cl)nc32)[C@H](O)[C@@H]1O", "note": "[CCPA, 2-chloro-N^6-cyclopentyladenosine]", "values": [{"measurement": "cardioprotective effect when present during prolonged hypoxia (CK released, % myocytes killed)", "setting": "[4]", "value": "caused a dose-dependent reduction in the percentage of myocytes killed"}, {"measurement": "% myocytes killed", "setting": "[5]", "value": "22.1±1.5", "unit": "%"}, {"measurement": "preconditioning / cardioprotective effect", "setting": "[3]", "value": "causes a pronounced cardioprotective effect in the cardiac myocyte"}]}
{"smiles": "CNC(=O)[C@H]1O[C@@H](n2cnc3c(NCc4cccc(I)c4)nc(Cl)nc32)[C@H](O)[C@@H]1O", "note": "[Cl-IB-MECA, 2-chloro-N^6-(3-iodobenzyl)adenosine-5′-N-methyluronamide]", "values": [{"measurement": "cardioprotective effect when present during prolonged hypoxia (CK released, % myocytes killed)", "setting": "[4]", "value": "capable of protecting the cardiac myocytes against hypoxia-induced injury"}, {"measurement": "% myocytes killed", "setting": "[5]", "value": "23.0±1.4", "unit": "%"}, {"measurement": "apoptotic cell death (DNA laddering)", "setting": "[1]", "value": "reduced apoptotic cell death of cardiac myocytes"}, {"measurement": "apoptotic cell death in the presence of 2-methylthioATP", "setting": "[1]; co-incubation, no ischemia", "value": "resulted in a decrease in apoptotic cell death"}, {"measurement": "apoptosis (DNA laddering)", "setting": "[1]", "value": "reduced apoptosis"}, {"measurement": "preconditioning / cardioprotective effect", "setting": "[3]", "value": "caused a potent cardioprotective effect"}]}
{"smiles": "CCOC(=O)C1=C(C)NC(c2ccccc2)=C(C(=O)OCc2ccccc2)C1C#Cc1ccccc1", "note": "(stereo not drawn) [MRS 1191, 3-ethyl-5-benzyl-2-methyl-6-phenyl-4-phenylethynyl-1,4-(1)-dihydropyridine-3,5-dicarboxylate]", "values": [{"measurement": "effect of antagonist on A1 agonist (CCPA, CHA, ADAC)-induced cardioprotection", "setting": "[4]; antagonist with A1 agonist during prolonged hypoxia", "value": "neither MRS 1191 nor MRS 1097 was able to block the CCPA-induced cardioprotection"}, {"measurement": "effect of antagonist on A3 agonist (IB-MECA, Cl-IB-MECA)-induced cardioprotection", "setting": "[4]; antagonist with A3 agonist during prolonged hypoxia", "value": "blocked the Cl-IB-MECA-induced cardioprotection"}, {"measurement": "apoptotic cell death (DNA laddering)", "setting": "[1]", "value": "but not the A3 antagonist (MRS1191) reduced apoptotic cell death"}]}
{"smiles": "Cn1c(=O)c2c(nc(C=Cc3cccc(Cl)c3)n2C)n(C)c1=O", "note": "[CSC, 8-(3-chlorostyryl)caffeine]", "values": [{"measurement": "apoptosis (DNA laddering)", "setting": "[1]", "value": "reduced apoptosis induced by the prolonged moderate ischemia"}]}
{"smiles": "CCNC(=O)C1OC(n2cnc3c(NC4CCCCC4)ncnc32)C(O)C1O", "note": "(stereo not drawn) [N^6-cyclohexyl NECA, N6-cyclohexyl 5′-N-ethylcarboxamidoadenosine]", "values": [{"measurement": "Ki", "setting": "A3 receptor; Table II", "value": 0.016, "unit": "µM"}]}
{"smiles": "CNC(=O)C1OC(n2cnc3c(NCc4cccc(I)c4)nc(NC)nc32)C(O)C1O", "note": "(stereo not drawn) [MRS 537]", "values": [{"measurement": "preconditioning / protection mediated via human adenosine A3 receptor", "setting": "[2]", "value": "can exert the cardioprotective effect of preconditioning via the human adenosine A3 receptor"}, {"measurement": "creatine kinase released during prolonged simulated ischemia", "setting": "[4]", "value": "cardioprotective effects"}]}
{"smiles": "CNC(=O)C1OC(n2cnc3c(NCc4cccc(C#CCNC(=O)CCC(=O)Nc5cccc(/C=C/c6nc7c(c(=O)n(C)c(=O)n7C)n6C)c5)c4)ncnc32)C(O)C1O", "note": "(stereo not drawn) [MRS 1528]", "values": [{"measurement": "preconditioning / protection mediated via human adenosine A3 receptor", "setting": "[2]", "value": "can cause preconditioning of the cardiac myocytes via human adenosine A3 receptor"}, {"measurement": "preconditioning effect in presence of A2a agonist CGS21680", "setting": "[3]; CGS21680 (0.3 μM)", "value": "protective effect of low concentrations of MRS1528 is attenuated by the A2a agonist CGS21680 whereas the protective effect of high concentrations of MRS1528 is not affected"}, {"measurement": "preconditioning effect in presence of A2a antagonist CSC", "setting": "[3]; CSC (1 μM)", "value": "unaffected by the A2a receptor antagonist CSC"}, {"measurement": "preconditioning / cardioprotective effect", "setting": "[3]", "value": "can activate A3 receptor to induce preconditioning and can simultaneously block the A2a receptor to enhance its preconditioning effect"}]}
{"smiles": "NCCNC(=O)Cc1ccc(NC(=O)Cc2ccc(Nc3ncnc4c3ncn4[C@@H]3O[C@H](CO)[C@@H](O)[C@H]3O)cc2)cc1", "note": "[ADAC, N^6-[4-[[[4-[[[(2-aminoethyl)amino]carbonyl]methyl]anilino]carbonyl]methyl]phenyl]adenosine]", "values": [{"measurement": "Ki", "setting": "A3 receptor; Compound 8 table", "value": 0.004, "unit": "µM"}, {"measurement": "cardioprotective effect when present during prolonged hypoxia (CK released, % myocytes killed)", "setting": "[4]", "value": "able to protect the myocytes when present during the prolonged hypoxia"}]}
